How the values were obtained:
DRD1 = target: T1, DRD1 (Homo sapiens, UniProt P21728); experiment: NanoBRET screen HiBiT-DRD1 in HEK293; assay type: binding
T1 construct: purchased Promega (in-house HiBiT-GPCR construct library, NanoBRET)
Procedure: (§1) Each tracer candidate was screened across the entire library of HiBiT-GPCR constructs using NanoBRET as the detection modality. As depicted in Figure 4A, the specificity of interactions was evaluated through decrease in BRET due to competitive displacement of a bound tracer by excess parental compound. Each tracer was analyzed for binding to each HiBiT-GPCR fusion in the absence and in the presence of competing parental compound. Briefly, HEK293 cells were transfected with HiBiT-GPCR constructs diluted into promoterless DNA to reduce expression and maximize translocation to the cell surface. Each tracer candidate was then screened at concentrations of 1 μM and 0.1 μM across cells expressing these fusions. Cells were treated for 1.5 h with tracer either alone or in the presence of 20 μM competing parental compound (i.e., control). BRET was measured upon addition of purified LgBiT and subsequent complementation with HiBiT genetically fused to a GPCR. The specificity of interactions was assessed through a decrease in BRET signal due to competitive displacement of the bound tracer. To further gauge the robustness of these interactions, the fold response over the control (i.e., BRETtracer/BRETcontrol) was calculated. We chose a 1.5-fold response, which translates to ≥7-fold signal over noise as the minimal threshold required to score an interaction as positive.
(§2) HiBiT-GPCR DNA constructs were diluted in 10 mM Tris pH 8 to a final concentration of 0.01 μg/μL, arrayed in 96-well plates and stored at −20 °C. For transfection, HEK293 cells were suspended in Opti-MEM (without phenol red) supplemented with 2% fetal bovine serum (Seradigm) and 100 units/mL penicillin–streptomycin (Gibco) at a final concentration of 220,000 cells/mL and dispensed into white 96-well plates at 90 μL/well. Subsequent transfections and screens were carried using an Agilent Bravo Automated Liquid Handling Platform. First, the 96-well HiBiT DNA arrays were diluted 25-fold in Opti-MEM (without serum or phenol red) to a final concentration of 0.0004 μg/μL and 20 μL of the diluted DNAs were transferred into new 96-well plates. Next, promoterless carrier DNA (1 μg/μL) was diluted 25-fold (0.04 μg/μL) and then dispensed into the diluted arrays at 20 μL/well. Following brief mixing, Viafect transfection reagent (Promega) diluted 16-fold into Opti-MEM was dispensed into the plates at 40 μL/well. After mixing by pipetting, plates were incubated for 10 min on the pipetting station deck. The DNA-transfection reagent complexes were then added to plates containing cells. To facilitate the screen, 10 μL of DNA-transfection reagent complexes were added in duplicates to the top 4 and bottom 4 rows, resulting in two identical 48-well arrays per plate. Plates with transfected cells were incubated for 18–20 h at 37 °C/5% CO2. A screen of each tracer across the entire library using two different concentrations requires duplicate plates of transfected cells. Depending on the number of tracers being screened, transfections can be scaled up using the same ratios. The next day, for each tracer, four 20× screening solutions in tracer dilution buffer (Promega) were prepared: two duplicates at final concentration of 20 μM and two duplicates at a final concentration of 2 μM. […] The four resulting solutions were diluted 4-fold in Opti-MEM without serum or phenol red to generate 5× solutions (5 µM and 0.5 µM tracer +/− 100 μM competing compound). To screen the library, a BioTek MultiFlo FX liquid dispenser was used to dispense 22.5 µL of tracer solution to the top 4 rows and 22.5 µL tracer + competing compound solution to the 4 bottom rows. Plates were briefly mixed on an orbital shaker and incubated for 1.5 h at room temperature. […] Plates were briefly mixed on an orbital shaker and incubated for 15 min to allow complementation.

ADRA1A = target: T2, ADRA1A (Homo sapiens, UniProt P35348); experiment: NanoBRET screen HiBiT-ADRA1A in HEK293; assay type: binding
T2 construct: purchased Promega (in-house HiBiT-GPCR construct library, NanoBRET)
T2 sequence (P35348 1-466): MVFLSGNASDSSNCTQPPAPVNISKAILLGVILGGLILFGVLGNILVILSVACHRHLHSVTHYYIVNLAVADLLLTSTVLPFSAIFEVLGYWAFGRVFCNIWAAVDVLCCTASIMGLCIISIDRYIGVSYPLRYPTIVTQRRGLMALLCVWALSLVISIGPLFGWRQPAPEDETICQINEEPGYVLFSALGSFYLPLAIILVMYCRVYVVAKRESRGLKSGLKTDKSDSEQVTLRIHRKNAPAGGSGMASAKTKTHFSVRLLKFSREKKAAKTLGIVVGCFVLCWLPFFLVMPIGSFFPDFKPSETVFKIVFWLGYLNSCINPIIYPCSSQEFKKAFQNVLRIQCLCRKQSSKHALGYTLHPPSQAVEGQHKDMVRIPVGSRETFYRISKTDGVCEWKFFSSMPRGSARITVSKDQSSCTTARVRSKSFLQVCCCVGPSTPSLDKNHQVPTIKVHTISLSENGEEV
Procedure: as §1, §2

[1] = tracer at 0.1μM, listed as amitriptyline-b-2-NB590
[2] = tracer at 1μM, listed as amitriptyline-b-2-NB590

T1 sequence (P21728 whole entry): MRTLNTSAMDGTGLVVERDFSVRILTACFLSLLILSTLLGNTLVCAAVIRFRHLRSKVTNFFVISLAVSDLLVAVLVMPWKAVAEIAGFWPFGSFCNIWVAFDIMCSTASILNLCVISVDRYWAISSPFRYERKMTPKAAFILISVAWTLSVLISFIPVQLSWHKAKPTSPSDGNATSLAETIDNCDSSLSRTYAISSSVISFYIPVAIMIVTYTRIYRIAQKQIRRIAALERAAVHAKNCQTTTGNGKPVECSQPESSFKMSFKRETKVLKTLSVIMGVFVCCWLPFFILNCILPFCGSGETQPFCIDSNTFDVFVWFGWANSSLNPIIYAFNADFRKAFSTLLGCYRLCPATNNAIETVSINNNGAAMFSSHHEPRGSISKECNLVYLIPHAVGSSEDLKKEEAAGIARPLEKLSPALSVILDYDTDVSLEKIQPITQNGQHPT

SMILES | NanoBRET Fold Response (DRD1; DRD1, tracer 0.1μM) | NanoBRET Fold Response (DRD1; DRD1, tracer 1μM) | NanoBRET Fold Response (ADRA1A; ADRA1A, tracer 0.1μM) | NanoBRET Fold Response (ADRA1A; ADRA1A, tracer 1μM) | also measured
CCOC(=O)c1cc(C#N)c(N2CCC(C(=O)NS(=O)(=O)Cc3ccccc3/C=C/C(=O)NCCNC(=O)CCc3ccc4n3[B-](F)(F)[N+]3=C(c5ccc[nH]5)C=CC3=C4)CC2)nc1C [AZD1283-1-NB590] |  |  |  |  | NanoBRET Fold Response (DRD1; DRD1, 0.1μM): 1.07; NanoBRET Fold Response (DRD1; DRD1, 1μM): 1.10; NanoBRET Fold Response (ADRA1A; ADRA1A, 0.1μM): 1.06; NanoBRET Fold Response (ADRA1A; ADRA1A, 1μM): 1.06
N#CN/C(=N\CCNC(=O)c1ccc(N)cc1)NCCCOc1cccc(CN2CCCCC2)c1 [Aminopotentidine (unmodified)] |  |  |  |  | NanoBRET Fold Response (DRD1; DRD1, other tracers/Aminopotentidine (unmodified), 0.1μM): 1.10; NanoBRET Fold Response (DRD1; DRD1, other tracers/Aminopotentidine (unmodified), 1μM): 1.11; NanoBRET Fold Response (ADRA1A; ADRA1A, other tracers/Aminopotentidine (unmodified), 0.1μM): 1.03; NanoBRET Fold Response (ADRA1A; ADRA1A, other tracers/Aminopotentidine (unmodified), 1μM): 1.07
N#CN=C(NCCCOc1cccc(CN2CCCCC2)c1)NCCNC(=O)CCOCCOCCOCCOCCNC(=O)CCc1ccc2n1[B-](F)(F)[N+]1=C(c3ccc[nH]3)C=CC1=C2 [Aminopotentidine-2-NB590] | 1.04 | 1.06 | 1.05 | 1.00 | 
CN(C)CCC=C1c2ccccc2CCc2ccc(C(=O)NCCNC(=O)CCOCCOCCOCCOCCNC(=O)CCc3ccc4n3[B-](F)(F)[N+]3=C(c5ccc[nH]5)C=CC3=C4)cc21 [Amitriptyline-a-2-NB590] |  |  |  |  | NanoBRET Fold Response (DRD1; tracer at 0.1μM): 1.04; NanoBRET Fold Response (DRD1; tracer at 1μM): 1.23; NanoBRET Fold Response (ADRA1A; tracer at 0.1μM): 1.38; NanoBRET Fold Response (ADRA1A; tracer at 1μM): 2.14
CN(C)CCC=C1c2ccccc2CCc2ccc(C(=O)NCCNC(=O)CCOCCOCCOCCOCCNC(=O)CCc3ccc4n3[B-](F)(F)[N+]3=C(c5ccc[nH]5)C=CC3=C4)cc21 [Amitriptyline-b-2-NB590] |  |  |  |  | NanoBRET Fold Response (DRD1; [1]): 1.39; NanoBRET Fold Response (DRD1; [2]): 1.97; NanoBRET Fold Response (ADRA1A; [1]): 4.73; NanoBRET Fold Response (ADRA1A; [2]): 2.23
CN(CCC=C1c2ccccc2CCc2ccccc21)C(=O)CCOCCOCCOCCOCCNC(=O)CCc1ccc2n1[B-](F)(F)[N+]1=C(c3ccc[nH]3)C=CC1=C2 [Amitriptyline-e-2-NB590] |  |  |  |  | NanoBRET Fold Response (DRD1; tracer at 1μM): 1.12; NanoBRET Fold Response (ADRA1A; tracer at 1μM): 1.32
COc1ccc2c(n1)c(CCNC(C)=O)cn2CCNC(=O)CCc1ccc2n1[B-](F)(F)[N+]1=C(c3ccc[nH]3)C=CC1=C2 [Azamelatonin-1-NB590] |  |  |  |  | NanoBRET Fold Response (DRD1; 0.1μM tracer): 0.92; NanoBRET Fold Response (DRD1; 1μM tracer): 0.96; NanoBRET Fold Response (ADRA1A; 0.1μM tracer): 0.96; NanoBRET Fold Response (ADRA1A; 1μM tracer): 0.95
COc1ccc2[nH]c(-c3ccc(CNC(=O)CCOCCOCCOCCOCCNC(=O)CCc4ccc5n4[B-](F)(F)[N+]4=C(c6ccc[nH]6)C=CC4=C5)cc3)c(CCNC(C)=O)c2n1 [AzomelatoninICO9-2-NB590] |  |  |  |  | NanoBRET Fold Response (DRD1; 0.1μM tracer): 0.98; NanoBRET Fold Response (DRD1; 1μM tracer): 0.94; NanoBRET Fold Response (ADRA1A; 0.1μM tracer): 1.06; NanoBRET Fold Response (ADRA1A; 1μM tracer): 0.94
O=C(CCOCCOCCOCCOCCNC(=O)CCc1ccc2n1[B-](F)(F)[N+]1=C(c3ccc[nH]3)C=CC1=C2)NCCCN1CCN(C2=Nc3cc(Cl)ccc3Nc3ccccc32)CC1 [Clozapine-a-2-NB590] |  |  |  |  | NanoBRET Fold Response (DRD1; DRD1, 0.1μM tracer): 3.20; NanoBRET Fold Response (DRD1; DRD1, 1μM tracer): 3.32; NanoBRET Fold Response (ADRA1A; ADRA1A, 0.1μM tracer): 3.90; NanoBRET Fold Response (ADRA1A; ADRA1A, 1μM tracer): 3.21
O=C(CCOCCOCCOCCOCCNC(=O)CCc1ccc2n1[B-](F)(F)[N+]1=C(c3ccc[nH]3)C=CC1=C2)NCCCN1CCN(C2=Nc3ccccc3Oc3ccc(Cl)cc32)CC1 [Loxapine-a-2-NB590] | 1.65 | 2.64 | 3.76 | 3.42 | 
COc1ccccc1N1CCN(CCCCN2C(=O)c3ccc(CNC(=O)CCOCCOCCOCCOCCNC(=O)CCc4ccc5n4[B-](F)(F)[N+]4=C(c6ccc[nH]6)C=CC4=C5)cc3C2=O)CC1 [NAN-190-2-NB590] | 1.23 | 1.53 | 5.18 | 4.33 | 
COc1ccccc1N1CCN(CCCCN2C(=O)c3ccc(CNC(=O)CCOCCNC(=O)c4ccc(CNC(=O)CCc5ccc6n5[B-](F)(F)[N+]5=C(c7ccc[nH]7)C=CC5=C6)cc4)cc3C2=O)CC1 [NAN-190-3-NB590] | 1.75 | 1.32 | 3.94 | 3.91 | 
O=C(CCc1ccc2n1[B-](F)(F)[N+]1=C(c3ccc[nH]3)C=CC1=C2)NCc1ccc(C(=O)NCCOCCC(=O)N[C@@H]2CC[C@@]3(O)[C@H]4Cc5ccc(O)c6c5[C@@]3(CCN4CC3CC3)[C@H]2O6)cc1 [Naltrexone-3-NB590] | 0.98 | 1.03 | 1.10 | 0.96 | 
Cc1cc2c(s1)Nc1ccccc1N=C2N1CCN(CCCNC(=O)CCOCCOCCOCCOCCNC(=O)CCc2ccc3n2[B-](F)(F)[N+]2=C(c4ccc[nH]4)C=CC2=C3)CC1 [Olanzapine-a-2-NB590] | 2.04 | 3.08 | 2.86 | 3.58 | 
O=C(CCc1ccc2n1[B-](F)(F)[N+]1=C(c3ccc[nH]3)C=CC1=C2)NCc1ccc(C(=O)NCCOCCOCCNCC(O)COc2cccc3ccccc23)cc1 (centres unmarked) [Propranolol-3-NB590] |  |  |  |  | NanoBRET Fold Response (DRD1; DRD1, 0.1μM): 1.01; NanoBRET Fold Response (DRD1; DRD1, 1μM): 0.98; NanoBRET Fold Response (ADRA1A; ADRA1A, 0.1μM): 1.53; NanoBRET Fold Response (ADRA1A; ADRA1A, 1μM): 1.47
O=C(CCc1ccc2n1[B-](F)(F)[N+]1=C(c3ccc[nH]3)C=CC1=C2)NCCOCCOCCNC(=O)OCCOCCN1CCN(C2=Nc3ccccc3Sc3ccccc32)CC1 [Quetiapine-a-2-NB590] | 1.65 | 1.97 | 3.24 | 3.51 | 
Cc1nc2n(c(=O)c1CCN1CCC(c3noc4cc(F)ccc34)CC1)CCCC2OC(=O)NCCOCCOCCOCCOCCNC(=O)CCc1ccc2n1[B-](F)(F)[N+]1=C(c3ccc[nH]3)C=CC1=C2 (centres unmarked) [Risperidone-2-NB590] | 2.20 | 2.38 | 4.86 | 3.45 | 
CC(C)N(CC[C@H](c1ccccc1)c1cc(CCNC(=O)CCOCCOCCOCCOCCNC(=O)CCc2ccc3n2[B-](F)(F)[N+]2=C(c4ccc[nH]4)C=CC2=C3)ccc1O)C(C)C [Tolterodine-2-NB590] | 0.94 | 1.01 | 0.97 | 0.98 | 
CC(C)N(CC[C@H](c1ccccc1)c1cc(CCNC(=O)c2ccc(CNC(=O)CCc3ccc4n3[B-](F)(F)[N+]3=C(c5ccc[nH]5)C=CC3=C4)cc2)ccc1O)C(C)C [Tolterodine-BZ-NB590] | 1.28 | 1.39 | 1.56 | 2.17 | 
